The values that follow come from US20190218226A1, “PRODRUGS OF ANTICANCER AGENTS INDOTECAN AND INDIMITECAN” (Purdue Research Foundation, priority 2016, published 2019).

Structures can show the parent of a compound that is named as a salt. Where two headings read alike, the source gives them in different places. Where only a bound is given, the exact number is not on record here.

One data set concerns HOP-62. Kind of data set: NCI60 antiproliferative screen, lung HOP-62. Type of data set: cell-based, human. The note with it: HOP-62, 48 h, sulforhodamine B, read-out: Cytotoxicity (GI50) lung HOP-62. On the procedure: (§1) All of the indenoisoquinolines were tested for antiproliferative activity in the National Cancer Institute's 60 cell line screen (NCI60). The cells were incubated with the tested compounds at 100, 10, 1, 0.1, and 0.01 μM concentrations for 48 h before treatment with sulforhodamine B dye. Optical densities were recorded, and their ratios relative to that of the control were plotted as percentage growth against the log 10 of the tested compound concentrations. The concentration that corresponds to 50% growth inhibition (GI50) is calculated by interpolation between the points located above and below the 50% percentage growth. The mean-graph midpoint (MGM) is an estimated average of the GI50 values derived from the NCI collection of 60 human cancer cell lines, where during the MGM calculation, anticancer agents with GI50 values that are outside the testing range of 0.01-100 μM are arbitrarily assigned the values of 0.01 and 100 μM, respectively. […] Also, the GI50 values of many of the substances vs. individual human cancer cell lines are below the lowest concentration used (0.01 μM) in the standard NCI testing protocol. […] For example, the MGM cytotoxicity values of 9, 15-17, and 19 are all very close to each other, but the Top1 inhibitory activities range from +++(+) to 0.

The next data set has as its system HCT-116. The experiment in a line: NCI60 antiproliferative screen, colon HCT-116. In kind it is cell-based, human. The note with it: HCT-116, 48 h, sulforhodamine B, read-out: Cytotoxicity (GI50) Colon HCT-116. On the procedure:
as §1

Another data set concerns SF-539. Kind of data set: NCI60 antiproliferative screen, CNS SF-539. Conditions: SF-539, 48 h, sulforhodamine B, read-out: Cytotoxicity (GI50) CNS SF-539. In kind it is cell-based, human. On the procedure:
as §1

Another data set has as its system UACC-62. Kind of data set: NCI60 antiproliferative screen, melanoma UACC-62. In kind it is cell-based, human. Conditions: UACC-62, 48 h, sulforhodamine B, read-out: Cytotoxicity (GI50) melanoma UACC-62. How it is done:
as §1

A further data set has as its system OVCAR-3. The experiment in a line: NCI60 antiproliferative screen, ovarian OVCAR-3. In kind it is cell-based, human. The note with it: OVCAR-3, 48 h, sulforhodamine B, read-out: Cytotoxicity (GI50) Ovarian OVCAR-3. How it is done:
as §1

In the next data set the test system is SN12C. Kind of data set: NCI60 antiproliferative screen, renal SN12C. Type of data set: cell-based, human. Conditions: 48 h, sulforhodamine B, read-out: Cytotoxicity (GI50) renal SN12C. On the procedure:
as §1

Another data set relates to DU-145. Kind of data set: NCI60 antiproliferative screen, prostate DU-145. In kind it is cell-based, human. The note with it: DU-145, 48 h, sulforhodamine B, read-out: Cytotoxicity (GI50) prostate DU-145. On the procedure:
as §1

The next data set relates to MCF-7. Kind of data set: NCI60 antiproliferative screen, breast MCF-7. Type of data set: cell-based, human. Conditions: MCF-7, 48 h, sulforhodamine B, read-out: Cytotoxicity (GI50) breast MCF-7. How it is done: as §1
Data set [1] has as its system all human cancer cell lines successfully tested (NCI60). Kind of data set: NCI60 mean graph midpoint for growth inhibition. Type of data set: cell-based. Conditions: for mean GI50 across NCI60 cell lines (MGM): all human cancer cell lines successfully tested, ± standard error, read-out: MGM (mean graph midpoint for growth inhibition). How it is done:
as §1

For a further data set, the target named is T1, Human recombinant Top1 (Homo sapiens, UniProt P11387).
T1 construct: made in house
T1 sequence (P11387 1-765): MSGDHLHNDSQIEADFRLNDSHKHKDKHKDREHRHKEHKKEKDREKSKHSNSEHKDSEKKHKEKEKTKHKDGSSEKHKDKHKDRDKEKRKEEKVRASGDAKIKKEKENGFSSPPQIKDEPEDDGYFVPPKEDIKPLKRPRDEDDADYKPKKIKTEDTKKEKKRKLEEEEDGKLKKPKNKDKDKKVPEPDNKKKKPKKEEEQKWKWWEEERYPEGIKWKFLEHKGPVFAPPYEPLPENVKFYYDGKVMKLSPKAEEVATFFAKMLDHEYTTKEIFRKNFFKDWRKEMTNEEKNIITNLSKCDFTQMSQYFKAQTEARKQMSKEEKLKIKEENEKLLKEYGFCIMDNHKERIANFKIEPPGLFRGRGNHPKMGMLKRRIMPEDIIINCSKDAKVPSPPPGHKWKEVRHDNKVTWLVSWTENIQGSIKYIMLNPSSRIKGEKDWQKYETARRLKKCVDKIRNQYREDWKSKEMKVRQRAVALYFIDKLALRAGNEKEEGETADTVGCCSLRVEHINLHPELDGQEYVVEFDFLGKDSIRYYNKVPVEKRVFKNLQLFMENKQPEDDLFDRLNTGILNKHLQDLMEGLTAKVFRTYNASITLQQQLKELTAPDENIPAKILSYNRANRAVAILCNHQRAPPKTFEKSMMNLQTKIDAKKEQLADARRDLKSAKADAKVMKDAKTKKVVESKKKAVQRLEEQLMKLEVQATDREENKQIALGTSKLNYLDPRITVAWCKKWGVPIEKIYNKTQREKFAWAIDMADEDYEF
The experiment in a line: Top1-mediated DNA cleavage assay. Type of data set: biochemical. On the set-up: key to Top1 inhibitory activity (level): 0, no detectable activity; +, weak activity; ++, similar activity to compound 4; +++, greater activity than 4; ++++, equipotent with 1; ++(+) would be between ++ and +++. Conditions: for Top 1 Cleavage: graded relative to 1 μM camptothecin; for Top1 inhibitory activity (level): scored relative to compounds 1 and 4. On the procedure: All of the new indenoisoquinoline derivatives were tested in Top1-mediated DNA cleavage assays. For this purpose, a ^32P 3′-end labeled 117-bp DNA fragment was incubated with Top1 at four concentrations of a tested compound. The DNA fragments were separated on 20% PAGE denaturing gels. The Top1 inhibitory activities were assigned on the basis of the visual inspection of the number and intensities of the gel bands corresponding to Top1-mediated DNA cleavage fragments and scored relative to the Top1 inhibitory activity of compounds 1 and 4. Results are expressed in semiquantitative fashion: 0, no detectable activity; +, weak activity; ++, similar activity to compound 4; +++, greater activity than 4; ++++, equipotent with 1. Ambiguous scores (e.g., between two values) are designated with parentheses (e.g., ++(+) would be between ++ and +++). […] After conversion of the hydroxyl to a dimethylcarbamate, the observed Top1 inhibitory activity increased from ++(+) for compound 8 to +++ for compound 10. Introduction of an acetyl group at the 0-2 position yielded compound 11, which was also a Top1 poison with activity at the ++ level. Subsequently, several hydrophobic substituents were attached to the 0-2 position.
Topoisomerase I-Mediated DNA Cleavage Reactions.
Human recombinant Top1 was purified from baculovirus as previously described (Morrell, A., et al., J. Med. Chem. 2007, 50, 2040-2048). DNA cleavage reactions were prepared as previously reported with the exception of the DNA substrate (Strumberg, D., et al., J. Med. Chem. 1999, 42, 446-457). Briefly, a 117-bp DNA oligonucleotide (Integrated DNA Technologies) encompassing the previously identified Top1 cleavage sites in the 161-bp fragment from pBluescript SK(−) phagemid DNA was employed. This 117-bp oligonucleotide contains a single 5′-cytosine overhang, which was 3′-end-labeled by fill-in reaction with [α-^32P]dGTP in React 2 buffer (50 mM Tris-HCl, pH 8.0, […], 50 mM NaCl) with 0.5 unit of DNA polymerase I (Klenow fragment, New England BioLabs). Unincorporated [^32P]dGTP was removed using mini Quick Spin DNA columns (Roche, Indianapolis, Ind.), and the eluate containing the 3′-end-labeled DNA substrate was collected. Approximately 2 nM radiolabeled DNA substrate was incubated with recombinant Top1 in 20 μL of reaction buffer [10 mM Tris-HCl (pH 7.5), 50 mM KCl, 5 mM MgCl2, 0.1 mM EDTA, and 15 μg/mL BSA] at 25° C. for 20 min in the presence of various concentrations of compounds. The reactions were terminated by adding SDS (0.5% final concentration) followed by the addition of two volumes of loading dye (80% formamide, 10 mM sodium hydroxide, 1 mM sodium EDTA, 0.1% xylene cyanol, and 0.1% bromophenol blue). Aliquots of each reaction mixture were subjected to 20% denaturing PAGE. Gels were dried and visualized by using a phosphoimager and ImageQuant software (Molecular Dynamics). For simplicity, cleavage sites were numbered as previously described in the 161-bp fragment.

For the molecule `COc1cc2c3c(n(CCCN4CCOCC4)c(=O)c2cc1OC(=O)c1ccccc1)-c1cc2c(cc1C3=O)OCO2` [Compound 18, 2-Methoxy-6-(3-morpholinopropyl)-5,12-dioxo-6,12-dihydro-5H-[1,3]dioxolo[4′,5′:5,6]indeno[1,2-c]isoquinolin-3-yl Benzoate], the concentration for 50% growth inhibition (GI50) is 2140 nM in the data set on HOP-62; 5890 nM in the data set with HCT-116; 135 nM in the data set on SF-539; 59 nM with UACC-62; 30900 nM with OVCAR-3; 195 nM with SN12C. In addition, the concentration for 50% growth inhibition (GI50) with DU-145 came to 724 nM; in the data set with MCF-7, 15 nM. For the same molecule, in data set [1] (NCI60), the “GI50's against various cell lines (range in words)” value is “micromolar range”. The “cytotoxicity relative to parent compound (in words)” value in [1] (NCI60) is listed as “significantly less cytotoxic than their respective parent compounds”. Moreover, in [1], the mean GI50 across NCI60 cell lines (MGM) is 3190 ± 622 nM. Further, the “Top1 inhibitory activity (in words)” value at Human recombinant Top1 is on record as “weak Top1 poisons”. At Human recombinant Top1, the “Top 1 Cleavage” value was “+ (+, between 20 and 50% activities)”.

Consider `COc1cc2c3c(n(CCCN4CCOCC4)c(=O)c2cc1OC(=O)N(C)C)-c1cc2c(cc1C3=O)OCO2` [Compound 15, 2-Methoxy-6-(3-morpholinopropyl)-5,12-dioxo-6,12-dihydro-5H-[1,3]dioxolo[4′,5′:5,6]indeno[1,2-c]isoquinolin-3-yl Dimethylcarbamate], for which the melting point lay in the range of 290 to 292 °C. In addition, the GI50 in the data set on HOP-62 (Homo sapiens) came to 32 nM. For the same molecule, the GI50 in the data set with HCT-116 (Homo sapiens) came out at 26 nM. Also, the GI50 in the data set with SF-539 (Homo sapiens) is 21 nM. In the data set on UACC-62 (Homo sapiens), the GI50 was determined as 17 nM. In the data set with OVCAR-3 (Homo sapiens), the GI50 is 105 nM. For the same molecule, the GI50 with SN12C (Homo sapiens) was found to be 25 nM. Besides, in the data set on DU-145 (Homo sapiens), the 50% growth inhibitory concentration (GI50) was 32 nM. In addition, in the data set with MCF-7 (Homo sapiens, MCF7), the concentration for 50% growth inhibition (GI50) was below 10 nM. Also, the mean GI50 across NCI60 cell lines (MGM) in data set [1] turned out to be 70 ± 28 nM.

For `COc1cc2c(=O)n(CCCN3CCOCC3)c3c(c2cc1OC(C)=O)C(=O)c1cc2c(cc1-3)OCO2` [Compound 11, 3-Methoxy-6-(3-morpholinopropyl)-5,12-dioxo-6,12-dihydro-5H-[1,3]dioxolo[4′,5′:5,6]indeno[1,2-c]isoquinolin-2-yl Acetate], the concentration for 50% growth inhibition (GI50) was 18 nM in the data set with HOP-62; 29 nM with HCT-116; below 10 nM with SF-539; 18 nM in the data set with UACC-62; 138 nM in the data set on OVCAR-3; below 10 nM in the data set on SN12C. In addition, the GI50 in the data set on DU-145 and in the data set on MCF-7 was below 10 nM each time. Also, the “cytotoxicity relative to parent compound (in words)” value in data set [1] (NCI60) is given as “greater than the parent 8 by a factor of almost one order of magnitude”. The mean GI50 across NCI60 cell lines (MGM) in data set [1] was 43 ± 19 nM. Besides, the “Top 1 Cleavage” value at Human recombinant Top1 is “++ (++, between 50 and 75% activity)”. Besides, the “Top1 inhibitory activity (level)” value on Human recombinant Top1 is “++”.

Regarding `COc1cc2c3c(n(CCCN4CCOCC4)c(=O)c2cc1OS(=O)(=O)O)-c1cc2c(cc1C3=O)OCO2` [Compound 20, 2-Methoxy-6-(3-morpholinopropyl)-5,12-dioxo-6,12-dihydro-5H-[1,3]dioxolo[4′,5′:5,6]indeno[1,2-c]isoquinolin-3-yl Hydrogen Sulfate], the concentration for 50% growth inhibition (GI50) in the data set with HOP-62 is 389 nM; in the data set on HCT-116, 389 nM; in the data set with SF-539, 263 nM; with UACC-62, 263 nM; in the data set with OVCAR-3 it was 1120 nM; with SN12C, 355 nM. Moreover, the values for the GI50 in the data set with DU-145 and in the data set with MCF-7 were 417 nM and 209 nM, respectively. Also, the mean GI50 across NCI60 cell lines (MGM) in data set [1] amounted to 912 nM. For the same molecule, the “Top 1 Cleavage” value on Human recombinant Top1 was “++ (++, between 50 and 75% activity)”.

As for `COc1cc2c(=O)n(CCCN3CCOCC3)c3c(c2cc1O)C(=O)c1cc2c(cc1-3)OCO2` [Compound 8], the GI50 is 257 nM with HOP-62 (Homo sapiens); 279 nM in the data set on HCT-116 (Homo sapiens); 335 nM with SF-539 (Homo sapiens); 282 nM in the data set with UACC-62 (Homo sapiens); 871 nM in the data set on OVCAR-3 (Homo sapiens); 195 nM in the data set with SN12C (Homo sapiens). The concentration for 50% growth inhibition (GI50) is 257 nM in the data set with DU-145 (Homo sapiens) and 144 nM in the data set on MCF-7 (Homo sapiens, MCF7). Besides, in data set [1], the mean GI50 across NCI60 cell lines (MGM) amounted to 412 nM. Moreover, the “Top1 inhibitory activity (level)” value at Human recombinant Top1 is recorded as “++(+)”.
